In patent US20240148821A1, “PHARMACEUTICAL USE OF CYCLIC PEPTIDE COMPOUND” (CHUGAI SEIYAKU KABUSHIKI KAISHA, priority 2021, published 2024):
pIC50: −log10 of the molar value. Numbered stars: 1 amine (or outer) side, 2 acyl side, 3 side chain; on linkers, the order of the positions; unused ones are H or OH. Bridge positions count the residues as written; N and C are the ends. Square brackets hold non-standard residues; d marks the D form. Peptide text beside a SMILES is read from it. * marks the point of attachment. hPhe(3,5-F2-4-CF3) = N[C@@H](CCc1cc(F)c(C(F)(F)F)c(F)c1)C(=O)O; hPhe(3-Cl-4-CF3) = N[C@@H](CCc1ccc(C(F)(F)F)c(Cl)c1)C(=O)O; hPhe(3-F,4-CF3) = N[C@@H](CCc1ccc(C(F)(F)F)c(F)c1)C(=O)O; X19 = O=C([C@@H]1C[C@@H](N2CCC(F)(F)CC2)CN1[*:1])[*:2]; NMePhe(4-CF3) = CN[C@@H](Cc1ccc(C(F)(F)F)cc1)C(=O)O; X24 = COc1cncc(C[C@@H](C(=O)[*:2])N(C)[*:1])c1; Phe(4-CHF2) = N[C@@H](Cc1ccc(C(F)F)cc1)C(=O)O; NEtPhe(4-Me) = CCN[C@@H](Cc1ccc(C)cc1)C(=O)O; NMePhe(4-Cl) = CN[C@@H](Cc1ccc(Cl)cc1)C(=O)O; NMePhe(4-Me) = CN[C@@H](Cc1ccc(C)cc1)C(=O)O; hPhe(4-Cl) = N[C@@H](CCc1ccc(Cl)cc1)C(=O)O; NMedβ3hAla = C[C@H](CC(=O)[*:2])N(C)[*:1]; NMeGly(cPent) = CN[C@H](C(=O)O)C1CCCC1; NMeCha = CN[C@@H](CC1CCCCC1)C(=O)O; Hyp = O=C(O)[C@@H]1C[C@@H](O)CN1; NMeAhp(2) = CCCCC[C@H](NC)C(=O)O; NMeChg = CN[C@H](C(=O)O)C1CCCCC1; NMeI = CC[C@H](C)[C@H](NC)C(=O)O; NMeT = CN[C@H](C(=O)O)[C@@H](C)O; NMeD = CN[C@@H](CC(=O)O)C(=O)O; NMeL = CN[C@@H](CC(C)C)C(=O)O; Chg = N[C@H](C(=O)O)C1CCCCC1; NMeV = CN[C@H](C(=O)O)C(C)C; d(β3hA) = C[C@@H](N)CC(=O)O; Morpholide = C1CN(*)CCO1; NMeA = CN[C@@H](C)C(=O)O; NMeAib = CNC(C)(C)C(=O)O; Piperidide = C1CCN(*)CC1; Pyrrolidide = C1CCN(*)C1; Ac5c = NC1(C(=O)O)CCCC1; Aze = O=C(O)[C@@H]1CCN1; NBuGly = CCCCNCC(=O)O; Sar = CNCC(=O)O

How the values were obtained:
[1] = target: protein-protein interaction between Kras and SOS1 (biotin-tagged human Kras loaded with GDP, His-tagged human SOS1) (Homo sapiens (Human), UniProt P01116, G12D); test: Protein-protein interaction inhibition between Kras and SOS1 (KrasG12D-SOS PPI) using AlphaScreen; format: biochemical; details: AlphaScreen; biotin-tagged human Kras loaded with GDP, His-tagged human SOS1; read-out: KRAS G12D-SOS PPI IC50;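 note: kras produced in E. coli, Ni-coupled donor beads and streptavidin acceptor beads, excitation 680 nm with emission detected at 520–620 nm via singlet oxygen transfer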
[2] = test system: Human pancreatic cancer cell line AsPC-1 (G12D mutation Kras); test: AsPC-1 cell growth inhibition (AsPC-1 CGI); format: cell-based; details: read-out: AsPC-1 cell growth inhibition, 50% growth inhibitory concentration (IC50 value); 96 hours, CellTiter-Glo, values classified in ranges
Protocol: Test compounds were serially dilated with dimethyl sulfoxide, and 200 nL was then dispensed to a U-bottom 96-well plate using Labcyte Echo. […] The cell suspension was dispensed to a. plate containing a test compound at 100 μL per well and incubated at 37° C. in a 5% carbon dioxide gas incubator. 96 hours later, 80 μL of CellTiter-Glo (Promega) was added to each well and fluorescence was measured.

| SMILES | pIC50 [1] | pIC50 [2] |
| --- | --- | --- |
| CC[C@H](C)[C@@H]1NC(=O)[C@H](C)N(C)C(=O)C[C@@H](C)N(C)C(=O)[C@H](CC(C)C)NC(=O)C(C)(C)N(C)C(=O)[C@H](CC(C)C)NC(=O)[C@H](CCc2ccc(C(F)(F)F)c(F)c2)NC(=O)CN(C)C(=O)[C@H](CC2CCCCC2)N(C)C(=O)CN(C)C(=O)CN(C)C1=O [Compound 842] (cyclo(I[Sar][Sar][NMeCha][Sar][hPhe(3-F,4-CF3)]L[NMeAib]L[NMedβ3hAla][NMeA])) | 7.37 | < 6.30 |
| CCCCN1CC(=O)NC2(CCCC2)C(=O)N(C)[C@@H](C2CCCCC2)C(=O)N(C)[C@H](C(=O)N2CCCCC2)CC(=O)N(C)[C@@H](CC(C)C)C(=O)N[C@@H]([C@@H](C)CC)C(=O)N(C)CC(=O)N(C)CC(=O)N(C)[C@@H](CC2CCCCC2)C(=O)N(C)CC(=O)N[C@@H](CCc2ccc(C(F)(F)F)c(Cl)c2)C1=O [Compound 848] ([NMeL]I[Sar][Sar][NMeCha][Sar][hPhe(3-Cl-4-CF3)][NBuGly][Ac5c][NMeChg][NMeD]-Piperidide; lactam N-11) | 7.80 | < 6.30 |
| CC[C@H](C)[C@@H]1NC(=O)[C@H](CC(C)C)N(C)C(=O)C[C@@H](C)N(C)C(=O)[C@H](CC(C)C)NC(=O)C(C)(C)N(C)C(=O)[C@H](Cc2ccc(C(F)F)cc2)NC(=O)[C@H](CCc2ccc(C(F)(F)F)c(F)c2)NC(=O)CN(C)C(=O)[C@H](CC2CCCCC2)N(C)C(=O)CN(C)C(=O)CN(C)C1=O [Compound 858] (cyclo(I[Sar][Sar][NMeCha][Sar][hPhe(3-F,4-CF3)][Phe(4-CHF2)][NMeAib]L[NMedβ3hAla][NMeL])) | 6.48 | < 6.30 |
| CC[C@H](C)[C@@H]1NC(=O)[C@H](CC(C)C)N(C)C(=O)C[C@@H](C(=O)N2CCCCC2)N(C)C(=O)[C@H](C(C)C)N(C)C(=O)C2(CCCC2)NC(=O)[C@@H]2CCCN2C(=O)[C@H](CCc2ccc(C(F)(F)F)c(Cl)c2)NC(=O)CN(C)C(=O)[C@H]([C@@H](C)O)N(C)C(=O)[C@@H]2CCN2C(=O)[C@H](C)N(C)C1=O [Compound 862] ([NMeL]I[NMeA][Aze][NMeT][Sar][hPhe(3-Cl-4-CF3)]P[Ac5c][NMeV][NMeD]-Piperidide; lactam N-11) | 8.57 | < 6.30 |
| CC[C@H](C)[C@@H]1NC(=O)[C@H](CC(C)C)N(C)C(=O)C[C@@H](C(=O)N(C)C)N(C)C(=O)[C@H]([C@@H](C)CC)N(C)C(=O)C2(CCCC2)NC(=O)[C@@H]2CCCN2C(=O)[C@H](CCc2ccc(C(F)(F)F)c(Cl)c2)NC(=O)CN(C)C(=O)[C@H](Cc2ccc(C)cc2)N(CC)C(=O)[C@@H]2CCN2C(=O)[C@H](C)N(C)C1=O [Compound 866] ([NMeL]I[NMeA][Aze][NEtPhe(4-Me)][Sar][hPhe(3-Cl-4-CF3)]P[Ac5c][NMeI][NMeD]-NMe2; lactam N-11) | 8.92 | ≥ 7.70 |
| CC[C@H](C)[C@@H]1NC(=O)[C@H](CC(C)C)N(C)C(=O)C[C@@H](C(=O)N2CCOCC2)N(C)C(=O)[C@H](C2CCCC2)N(C)C(=O)C2(CCCC2)NC(=O)[C@@H]2CCCN2C(=O)[C@H](CCc2ccc(C(F)(F)F)c(F)c2)NC(=O)CN(C)C(=O)[C@H](C2CCCC2)N(C)C(=O)[C@@H]2CCN2C(=O)[C@H](C)N(C)C1=O [Compound 871] ([NMeL]I[NMeA][Aze][NMeGly(cPent)][Sar][hPhe(3-F,4-CF3)]P[Ac5c][NMeGly(cPent)][NMeD]-Morpholide; lactam N-11) | 9.11 | ≥ 7.70 |
| CC[C@H](C)[C@@H]1NC(=O)[C@H](CC(C)C)N(C)C(=O)C[C@@H](C(=O)N2CCCCC2)N(C)C(=O)[C@H](CC(C)C)N(C)C(=O)C2(CCCC2)NC(=O)[C@@H]2C[C@@H](O)CN2C(=O)[C@H](CCc2ccc(C(F)(F)F)c(F)c2)NC(=O)CN(C)C(=O)[C@H](CC2CCCCC2)N(C)C(=O)CN(C)C(=O)CN(C)C1=O [Compound 875, (3S,9S,18S,21S,25S,28S,34S,36R)-9-(cyclohexylmethyl)-3-[2-[3-fluoro-4-(trifluoromethyl)phenyl]ethyl]-36-hydroxy-21,28-diisobutyl-7,10,13,16,22,26,29-heptamethyl-18-[(1S)-1-methylpropyl]-25-(piperidine-1-carbonyl)spiro[1,4,7,10,13,16,19,22,26,29,32-undecazabicyclo[32.3.0]heptatriacontane-31,1′-cyclopentane]-2,5,8,11,14,17,20,23,27,30,33-undecone] ([NMeL]I[Sar][Sar][NMeCha][Sar][hPhe(3-F,4-CF3)][Hyp][Ac5c][NMeL][NMeD]-Piperidide; lactam N-11) | 8.51 | < 6.30 |
| CC[C@H](C)[C@@H]1NC(=O)[C@H](CC(C)C)N(C)C(=O)C[C@@H](C(=O)N2CCCC2)N(C)C(=O)[C@H]([C@@H](C)CC)N(C)C(=O)C2(CCCC2)NC(=O)[C@@H]2CCCN2C(=O)[C@H](CCc2ccc(C(F)(F)F)c(Cl)c2)NC(=O)CN(C)C(=O)[C@H](Cc2ccc(C(F)(F)F)cc2)N(C)C(=O)[C@@H]2CCN2C(=O)[C@H](C)N(C)C1=O [Compound 882] ([NMeL]I[NMeA][Aze][NMePhe(4-CF3)][Sar][hPhe(3-Cl-4-CF3)]P[Ac5c][NMeI][NMeD]-Pyrrolidide; lactam N-11) | 9.33 | ≥ 7.70 |
| CC[C@H](C)[C@@H]1NC(=O)[C@H](CC(C)C)N(C)C(=O)C[C@@H](C)N(C)C(=O)[C@H](CC(C)C)NC(=O)C(C)(C)N(C)C(=O)[C@H](CC(C)C)NC(=O)[C@H](CCc2ccc(C(F)(F)F)c(F)c2)NC(=O)CN(C)C(=O)[C@H](CC2CCCCC2)N(C)C(=O)CN(C)C(=O)CN(C)C1=O [Compound 883] (cyclo(I[Sar][Sar][NMeCha][Sar][hPhe(3-F,4-CF3)]L[NMeAib]L[NMedβ3hAla][NMeL])) | 7.31 | < 6.30 |
| CC[C@H](C)[C@@H]1NC(=O)[C@H](CC(C)C)N(C)C(=O)C[C@@H](C(=O)N2CCCCC2)N(C)C(=O)[C@H](C2CCCCC2)N(C)C(=O)C2(CCCC2)NC(=O)[C@H](Cc2cncc(OC)c2)N(C)C(=O)[C@H](CCc2ccc(C(F)(F)F)c(Cl)c2)NC(=O)CN(C)C(=O)[C@H](CC2CCCCC2)N(C)C(=O)CN(C)C(=O)CN(C)C1=O [Compound 887] ([NMeL]I[Sar][Sar][NMeCha][Sar][hPhe(3-Cl-4-CF3)][X24][Ac5c][NMeChg][NMeD]-Piperidide; lactam N-11) | 8.21 | < 6.30 |
| CC[C@H](C)[C@@H]1NC(=O)[C@H](C(C)C)N(C)C(=O)C[C@@H](C)NC(=O)[C@H](CC(C)C)N(C)C(=O)C2(CCCC2)NC(=O)[C@H](CC(C)C)N(C)C(=O)[C@H](CCc2ccc(C(F)(F)F)c(Cl)c2)NC(=O)CN(C)C(=O)[C@H](CC2CCCCC2)N(C)C(=O)CN(C)C(=O)CN(C)C1=O [Compound 892] (cyclo([Ac5c][NMeL][d(β3hA)][NMeV]I[Sar][Sar][NMeCha][Sar][hPhe(3-Cl-4-CF3)][NMeL])) | 7.17 | < 6.30 |
| CCCCC[C@H]1C(=O)N[C@@H]([C@@H](C)CC)C(=O)N(C)[C@@H](C)C(=O)N2CC[C@H]2C(=O)N(C)[C@@H](Cc2ccc(C)cc2)C(=O)N(C)CC(=O)N[C@@H](CCc2ccc(C(F)(F)F)c(Cl)c2)C(=O)N2CCC[C@H]2C(=O)NC2(CCCC2)C(=O)N(C)[C@@H]([C@@H](C)CC)C(=O)N(C)[C@H](C(=O)N(C)C)CC(=O)N1C [Compound 896] ([NMeAhp(2)]I[NMeA][Aze][NMePhe(4-Me)][Sar][hPhe(3-Cl-4-CF3)]P[Ac5c][NMeI][NMeD]-NMe2; lactam N-11) | 8.96 | ≥ 7.70 |
| CC[C@H](C)[C@@H]1NC(=O)[C@H](CC(C)C)N(C)C(=O)C[C@@H](C)N(C)C(=O)[C@H](C2CCCCC2)NC(=O)C(C)(C)N(C)C(=O)[C@H](CC(C)C)NC(=O)[C@H](CCc2ccc(C(F)(F)F)c(F)c2)NC(=O)CN(C)C(=O)[C@H](Cc2ccc(Cl)cc2)N(C)C(=O)CN(C)C(=O)CN(C)C1=O [Compound 897] (cyclo([Chg][NMedβ3hAla][NMeL]I[Sar][Sar][NMePhe(4-Cl)][Sar][hPhe(3-F,4-CF3)]L[NMeAib])) | 6.82 | < 6.30 |
| CC[C@H](C)[C@@H]1NC(=O)[C@H](C)N(C)C(=O)C[C@@H](C(=O)N2CCCCC2)N(C)C(=O)[C@H](C(C)C)N(C)C(=O)C2(CCCC2)NC(=O)[C@@H]2CCCN2C(=O)[C@H](CCc2ccc(Cl)cc2)NC(=O)CN(C)C(=O)[C@H](CC2CCCCC2)N(C)C(=O)[C@@H]2CCN2C(=O)[C@H](C)N(C)C1=O [Compound 903] ([NMeA]I[NMeA][Aze][NMeCha][Sar][hPhe(4-Cl)]P[Ac5c][NMeV][NMeD]-Piperidide; lactam N-11) | 7.62 | < 6.30 |
| CC[C@H](C)[C@@H]1NC(=O)[C@H](CC(C)C)N(C)C(=O)C[C@@H](C)N(C)C(=O)[C@H]([C@@H](C)CC)N(C)C(=O)C2(CCCC2)NC(=O)[C@@H]2CCCN2C(=O)[C@H](CCc2cc(F)c(C(F)(F)F)c(F)c2)NC(=O)CN(C)C(=O)[C@H](Cc2ccc(C(F)(F)F)cc2)N(C)C(=O)[C@@H]2CCN2C(=O)[C@H](C)N(C)C1=O [Compound 907] (cyclo([Ac5c][NMeI][NMedβ3hAla][NMeL]I[NMeA][Aze][NMePhe(4-CF3)][Sar][hPhe(3,5-F2-4-CF3)]P)) | 8.85 | ≥ 7.70 |
| CC[C@H](C)[C@@H]1NC(=O)[C@H](C)N(C)C(=O)C[C@@H](C(=O)N2CCCCC2)N(C)C(=O)[C@H](C(C)C)N(C)C(=O)C2(CCCC2)NC(=O)[C@@H]2C[C@@H](N3CCC(F)(F)CC3)CN2C(=O)[C@H](CCc2ccc(C(F)(F)F)c(Cl)c2)NC(=O)CN(C)C(=O)[C@H](CC2CCCCC2)N(C)C(=O)CN(C)C(=O)CN(C)C1=O [Compound 914] ([NMeA]I[Sar][Sar][NMeCha][Sar][hPhe(3-Cl-4-CF3)][X19][Ac5c][NMeV][NMeD]-Piperidide; lactam N-11) | 8.96 | < 6.30 |
